Measurements published in patent publication US20240287080A1 (IDEAYA Biosciences Inc., priority 2021, published 2024).

Molecular target: T1, Pol theta (1-899) (Homo sapiens, UniProt O75417)
T1 construct: Pol theta (1-899) (5 nM) in assay buffer
Test: Pol theta ATPase activity, NADH oxidation-coupled enzymatic assay (ATPase NADH coupling: Standard Screening: hPolQ)
Type: biochemical
Settings: Pol theta (1-899) 5 nM
How it was run: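 Rates of ATP hydrolysis taken from 60-min A340 traces of NADH oxidation via PK/LDH coupling, then fit four-parameter for IC50, Hill slope and max inhibition. Enzyme (5 nM, 1-899) and compounds preincubated 15 min before ATP 100 μM and 50-thymine ssDNA 300 nM (stock, equal volume added).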

[1] = NADH oxidation-coupled ATPase assay, compounds of Table 3

T1 sequence (O75417 1-899): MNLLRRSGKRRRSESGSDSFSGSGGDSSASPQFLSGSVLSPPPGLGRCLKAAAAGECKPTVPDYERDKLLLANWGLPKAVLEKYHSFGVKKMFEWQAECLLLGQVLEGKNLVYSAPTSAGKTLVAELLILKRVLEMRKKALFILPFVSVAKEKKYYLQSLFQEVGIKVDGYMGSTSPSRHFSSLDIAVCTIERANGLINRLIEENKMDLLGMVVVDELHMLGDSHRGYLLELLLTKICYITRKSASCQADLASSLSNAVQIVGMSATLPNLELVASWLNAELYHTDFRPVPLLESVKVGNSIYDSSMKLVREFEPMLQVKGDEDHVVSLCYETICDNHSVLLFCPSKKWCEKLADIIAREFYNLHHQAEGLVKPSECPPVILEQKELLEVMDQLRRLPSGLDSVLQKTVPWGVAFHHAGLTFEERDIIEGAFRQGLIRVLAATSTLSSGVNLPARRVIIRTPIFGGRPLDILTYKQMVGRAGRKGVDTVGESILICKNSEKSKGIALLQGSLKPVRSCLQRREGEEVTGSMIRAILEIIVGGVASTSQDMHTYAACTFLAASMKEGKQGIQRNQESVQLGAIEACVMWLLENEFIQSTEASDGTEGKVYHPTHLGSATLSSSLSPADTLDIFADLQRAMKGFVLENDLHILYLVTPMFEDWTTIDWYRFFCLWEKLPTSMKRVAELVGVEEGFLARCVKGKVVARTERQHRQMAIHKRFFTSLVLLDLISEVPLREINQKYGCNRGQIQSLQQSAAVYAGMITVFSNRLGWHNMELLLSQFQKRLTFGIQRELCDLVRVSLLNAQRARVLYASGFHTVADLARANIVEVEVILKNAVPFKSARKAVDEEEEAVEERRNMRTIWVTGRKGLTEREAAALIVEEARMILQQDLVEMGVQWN

SMILES | IC50 (Table 5, ATP, dT50 ssDNA) [nM] | IC50 [1] [nM]
Cc1cc(-c2cc(Cl)ncc2OC(F)F)c(C(=O)Nc2nnc(O[C@H]3CC[C@@](C)(O)CC3)s2)cn1 (single isomer, unassigned) [Example 220, 2′-chloro-5′-(difluoromethoxy)-N-(5-(((1s,4s)-4-hydroxy-4-methylcyclohexyl)oxy)-1,3,4-thiadiazol-2-yl)-6-methyl-(4,4′-bipyridine)-3-carboxamide] | ≤ 200 | 
COc1cnc(C)c(F)c1-c1cc(C)ncc1C(=O)Nc1nnc(O[C@H]2CC[C@@](C)(O)CC2)s1 (single isomer, unassigned) [Example 221, 3′-fluoro-N-(5-(((1s,4s)-4-hydroxy-4-methylcyclohexyl)oxy)-1,3,4-thiadiazol-2-yl)-5′-methoxy-2′,6-dimethyl-(4,4′-bipyridine)-3-carboxamide] | ≤ 200 | 
COc1cnc(Br)cc1-c1cc(C)ncc1C(=O)Nc1nnc(O[C@H]2CC[C@@](C)(O)CC2)s1 (single isomer, unassigned) [Example 222, 2′-bromo-N-(5-(((1s,4s)-4-hydroxy-4-methylcyclohexyl)oxy)-1,3,4-thiadiazol-2-yl)-5′-methoxy-6-methyl-(4,4′-bipyridine)-3-carboxamide] | ≤ 200 | 
Cc1cc(-c2cc(Cl)ncc2OC(F)F)c(C(=O)Nc2nnc(O[C@H]3CC[C@](C)(O)CC3)s2)cn1 (single isomer, unassigned) [Example 223, 2′-chloro-5′-(difluoromethoxy)-N-(5-(((1r,4r)-4-hydroxy-4-methylcyclohexyl)oxy)-1,3,4-thiadiazol-2-yl)-6-methyl-(4,4′-bipyridine)-3-carboxamide] | ≤ 200 | 
COc1cnc(C)c(F)c1-c1cc(C)ncc1C(=O)Nc1nnc(O[C@H]2CC[C@](C)(O)CC2)s1 (single isomer, unassigned) [Example 224, 3′-fluoro-N-(5-(((1r,4r)-4-hydroxy-4-methylcyclohexyl)oxy)-1,3,4-thiadiazol-2-yl)-5′-methoxy-2′,6-dimethyl-(4,4′-bipyridine)-3-carboxamide] | ≤ 200 | 
COc1cnc(Br)cc1-c1cc(C)ncc1C(=O)Nc1nnc(O[C@H]2CC[C@](C)(O)CC2)s1 (single isomer, unassigned) [Example 225, 2′-bromo-N-(5-(((1r,4r)-4-hydroxy-4-methylcyclohexyl)oxy)-1,3,4-thiadiazol-2-yl)-5′-methoxy-6-methyl-(4,4′-bipyridine)-3-carboxamide] | ≤ 200 | 
COc1cnc(Br)cc1-c1cc(C)ncc1C(=O)Nc1nnc(O[C@@H]2COC3(CC3)C2)s1 (single isomer, unassigned) [Example 226] | ≤ 200 | 
COc1cnc(Br)cc1-c1cc(C)ncc1C(=O)Nc1nnc(O[C@H]2COC3(CC3)C2)s1 (single isomer, unassigned) [Example 227] | ≤ 200 | 
COc1cnc(Cl)cc1-c1cc(C)ncc1C(=O)Nc1nnc(O[C@@H]2COC3(CC3)C2)s1 (single isomer, unassigned) [Example 228] | ≤ 200 | 
COc1cnc(Cl)cc1-c1cc(C)ncc1C(=O)Nc1nnc(O[C@@H]2COC3(CCCC3)C2)s1 (single isomer, unassigned) [Example 229] | ≤ 200 | 
COc1cnc(Cl)cc1-c1cc(C)ncc1C(=O)Nc1nnc(O[C@H]2COC3(CCCC3)C2)s1 (single isomer, unassigned) [Example 230] | ≤ 200 | 
Cc1cc(-c2cc(Cl)ncc2OC(F)F)c(C(=O)Nc2nnc(O[C@@H]3COC4(CC4)C3)s2)cn1 (single isomer, unassigned) [Example 232] | ≤ 200 | 
Cc1cc(-c2cc(Cl)ncc2OC(F)F)c(C(=O)Nc2nnc(O[C@H]3COC4(CC4)C3)s2)cn1 (single isomer, unassigned) [Example 233] | ≤ 200 | 
COc1cnc(C)c(F)c1-c1cc(C)ncc1C(=O)Nc1nnc(O[C@H]2CCC[C@@H](O)C2)s1 (single isomer, unassigned) [Example 236] |  | ≤ 200
COc1cnc(Br)cc1-c1cc(C)ncc1C(=O)Nc1nnc(O[C@@H]2CCC[C@H](O)C2)s1 (single isomer, unassigned) [Example 239] |  | ≤ 200
COc1cnc(Br)cc1-c1cc(C)ncc1C(=O)Nc1nnc(O[C@H]2CCC[C@@H](O)C2)s1 (single isomer, unassigned) [Example 244] |  | ≤ 200
Cc1cc(-c2cc(Cl)ncc2OC(F)F)c(C(=O)Nc2nnc(O[C@@H]3CCC[C@@H](O)C3)s2)cn1 (single isomer, unassigned) [Example 251] |  | ≤ 200
Cc1cc(-c2cc(Cl)ncc2OC(F)F)c(C(=O)Nc2nnc(O[C@@H]3CCC[C@H](O)C3)s2)cn1 (single isomer, unassigned) [Example 252] |  | ≤ 200
Cc1cc(-c2cc(Cl)ncc2OC(F)F)c(C(=O)Nc2nnc(O[C@H]3CCC[C@@H](O)C3)s2)cn1 (single isomer, unassigned) [Example 253] |  | ≤ 200
COc1cnc(C)c(F)c1-c1cc(C)ncc1C(=O)Nc1nnc(O[C@@H]2C[C@@H]3C[C@H]2C[C@H]3O)s1 (single isomer, unassigned) [Example 254] |  | ≤ 200
COc1cnc(C)c(F)c1-c1cc(C)ncc1C(=O)Nc1nnc(O[C@@H]2CCC[C@H](O)C2)s1 (single isomer, unassigned) [Example 255] |  | ≤ 200
COc1cnc(C)c(F)c1-c1cc(C)ncc1C(=O)Nc1nnc(O[C@H]2CCC[C@H](O)C2)s1 (single isomer, unassigned) [Example 256] |  | ≤ 200
COc1cnc(Cl)cc1-c1cc(C)ncc1C(=O)Nc1nnc(O[C@@H]2C[C@H](F)CN(C3COC3)C2)s1 (single isomer, unassigned) [Example 260] |  | ≤ 200

SMILES | IC50 (Table 5, ATP, dT50 ssDNA) [nM] | IC50 [1] [nM]
COc1cnc(C)c(F)c1-c1cc(C)ncc1C(=O)Nc1nnc(O[C@H]2C[C@H]3C[C@@H]2C[C@@H]3O)s1 (single isomer, unassigned) [Example 261] |  | ≤ 200
COc1cnc(Cl)cc1-c1cc(C)ncc1C(=O)Nc1nnc(O[C@@H]2C[C@@H]3C[C@H]2C[C@H]3O)s1 (single isomer, unassigned) [Example 263] |  | ≤ 200
COc1cnc(Cl)cc1-c1cc(C)ncc1C(=O)Nc1nnc(O[C@H]2C[C@H]3C[C@@H]2C[C@@H]3O)s1 (single isomer, unassigned) [Example 269] |  | ≤ 200
COc1cnc(C)c(F)c1-c1cc(C)ncc1C(=O)Nc1nnc(O[C@@H]2CCC[C@@H](O)C2)s1 (single isomer, unassigned) [Example 274] |  | ≤ 200
COc1nnc(NC(=O)c2cnc(C)cc2-c2cc(Cl)c([S+](C)[O-])cc2OC)s1 (single isomer, unassigned) [Example 277] |  | ≤ 200
COc1cnc(Cl)cc1-c1cc(C)ncc1C(=O)Nc1nnc(O[C@@H]2C[C@H](F)CN(C(C)C)C2)s1 (single isomer, unassigned) [Example 283] |  | 200 to 500
COc1cnc(C)c(F)c1-c1cc(C)ncc1C(=O)Nc1nnc(OC2([C@H]3CCOC3)CC2)s1 (single isomer, unassigned) [Example 287] |  | ≤ 200
COc1cnc(C)c(F)c1-c1cc(C)ncc1C(=O)Nc1nnc(OC2([C@@H]3CCOC3)CC2)s1 (single isomer, unassigned) [Example 293] |  | ≤ 200
COc1cnc(Cl)cc1-c1cc(C)ncc1C(=O)Nc1nnc(OC2([C@H]3CCOC3)CC2)s1 (single isomer, unassigned) [Example 297] |  | ≤ 200
COc1nnc(NC(=O)c2cnc(C)cc2-c2cc(Cl)c([S+](C)[O-])cc2OC)s1 (single isomer, unassigned) [Example 298] |  | 500 to 1000
COc1cnc(Cl)cc1-c1cc(C)ncc1C(=O)Nc1nnc(OC2([C@@H]3CCOC3)CC2)s1 (single isomer, unassigned) [Example 299] |  | ≤ 200
COc1cnc(C)c(F)c1-c1cc(C)ncc1C(=O)Nc1nnc(O[C@@H]2CO[C@H]3OCC[C@H]32)s1 (single isomer, unassigned) [Example 304] |  | ≤ 200
COc1cnc(Cl)cc1-c1cc(C)ncc1C(=O)Nc1nnc(O[C@@H]2CO[C@H]3OCC[C@H]32)s1 (single isomer, unassigned) [Example 305] |  | ≤ 200
COc1nnc(NC(=O)c2cnc(C)cc2-c2cc(C)c([S@+](C)[O-])cc2OC)s1 (single isomer, unassigned) [Example 307] |  | 200 to 500
COc1nnc(NC(=O)c2cnc(C)cc2-c2cc(C)c([S@@+](C)[O-])cc2OC)s1 (single isomer, unassigned) [Example 308] |  | 1000 to 10000
CC[S@+]([O-])c1cc(OC)c(-c2cc(C)ncc2C(=O)Nc2nnc(OC)s2)cc1Cl (single isomer, unassigned) [Example 312] |  | 500 to 1000
CC[S@@+]([O-])c1cc(OC)c(-c2cc(C)ncc2C(=O)Nc2nnc(OC)s2)cc1Cl (single isomer, unassigned) [Example 313] |  | ≤ 200
COc1nnc(NC(=O)c2cnc(C)cc2-c2cc(Cl)c([S@@+]([O-])C3CC3)cc2OC)s1 (single isomer, unassigned) [Example 318] |  | ≤ 200
COc1nnc(NC(=O)c2cnc(C)cc2-c2cc(Br)c([S@@+](C)[O-])cc2OC)s1 (single isomer, unassigned) [Example 319] |  | ≤ 200
COc1nnc(NC(=O)c2cnc(C)cc2-c2cc(Cl)c([S@+]([O-])C3CC3)cc2OC)s1 (single isomer, unassigned) [Example 321] |  | 1000 to 10000
COc1nnc(NC(=O)c2cnc(C)cc2-c2cc(Br)c([S@+](C)[O-])cc2OC)s1 (single isomer, unassigned) [Example 322] |  | 500 to 1000
COc1cnc(Cl)cc1-c1cc(C)ncc1C(=O)Nc1nnc(O[C@H]2CCCN(C3CCOC3)C2)s1 (stereo in doubt) [Example 310, 2′-chloro-5′-methoxy-6-methyl-N-(5-(((S)-1-((S)-tetrahydrofuran-3-yl)piperidin-3-yl)oxy)-1,3,4-thiadiazol-2-yl)-[4,4′-bipyridine]-3-carboxamide] |  | ≤ 200
